Patent US20240131356A1, “COMBINATION OF INTRACELLULAR AND EXTRACELLULAR PHOTOSENSITIZERS FOR TREATMENT OF BACTERIAL INFECTION” (priority 2021, published 2024)
Entries after “also recorded” stand apart in the source; their conditions may differ. Like-named read-outs stand apart in the source and are kept apart here.

What was measured:
[1] = test system: hrtAB promoter (HssRS activation; CgoX activation); test: XylE colorimetric reporter assay (phrt.xylE), activation of HssRS / hrtAB expression; type: cell-based, Staphylococcus aureus strain Newman; conditions: for XylE activity in comparison to '8882 at 10 μM: six-hour exposure (FIG. 2A); for Specifc Activity (nMol/min*mg), data collected at 10 uM: footnote a: data collected at 10 uM
Method: (§1) To maximize the production of coproporphyrin III and thereby increase blue-light mediated killing of S. aureus, synthesized analogs of VU0038882 were tested. To determine the relative efficacy of each analog, a Newman strain of S. aureus, transformed with the phrt.xylE (11) reporter vector was used. This reporter allows for colorimetric assessment of intracellular heme production. To perform the assay, each individual analog was added to 3 mL of TSB+10 μg/mL chloramphenicol to reach a concentration of 30 μM, and then 700 μL of this newly made 30 μM solution was added to 1.3 mL of remaining TSB+10 μg/mL chloramphenicol media to create the 10 μM concentration. Either 10 μM or 30 μM concentrations of compounds in medium were then aliquoted into three 0.5 mL replicate tubes. Three separate 16- to 18-hour overnight subcultures from isolated colonies were back-diluted 1:100 into the tubes creating three biological replicates and were subcultured for 6 hours at 37° C. and 180 rpm. After incubation, the cells were pelleted at 16,400 g for 5 minutes and the supernatant aspirated before washing with 0.5 mL of 20 mM potassium phosphate wash buffer. After pelleting the cells again at 16,400 g for 5 minutes the wash buffer was aspirated, and the pellets were stored at −80° C. until further use.
When the cells were ready to be lysed and data collected, samples were removed from the −80° C. freezer, allowed to thaw, and resuspended in 150 μL of lysis buffer (100 mM potassium phosphate pH=8.0, 10% v/v acetone, 20 μg/mL lysostaphin) before incubation in a 37° C. bead bath for 20 minutes and then cooled for 5 minutes on ice. The samples were then centrifuged at 16,400 g and 4° C. for 30 minutes to separate the pellet from the lysate, which was then placed into a 96-well microtiter plate and kept on ice. The lysate from each sample was pipetted into 20 μL aliquots on a round-bottom or flat-bottom 96-well plate on ice. The round bottom plate was labeled for bicinchoninic acid assay (BCA) protein content analysis, and 10 μL of BCA standards was added to extra wells on the plate. Protein quantification was performed using a Pierce BCA Protein Assay Kit as per the manufacturer's instructions. While the BCA plate was in the incubator, the flat-bottom plate was prepared by thawing 1 M catechol on ice and making 100 mM potassium phosphate (pH=8.0) assay buffer. After preparing a kinetic read at 375 nm for 10 minutes with a minimal interval between reads, the catechol was diluted 1:1,000 into the assay buffer and quickly dispensed into a sterile basin, then 200 μL of the solution was pipetted into each well using a multichannel pipette. All data were exported into Excel software (Microsoft) and analyzed for specific activity of each compound and activity relative to VU0038882 controls.
After 219 analogs had been screened, the compounds with the best percent VU0038882 activity were tested again following the same protocol, but with twelve replicates per concentration with data expressed as averages ±the standard deviation (SD). Additionally, the top-performing compounds were tested using the XylE protocol with a concentration gradient to determine their half maximal effective concentration (EC50) values.
Photosensitizer-conjugated antibodies expose bacteria to reactive oxygen species (ROS) externally, but this treatment can be paired with small molecule treatment to generate ROS internally via heme biosynthesis pathway intermediates. To discover new compounds capable of activating CgoX and/or displaying less toxicity to eukaryotic cells, a medicinal chemistry campaign was initatied based on systematic alternation of the '8882 structure. Each new analog was tested for the ability to activate HssRS using the previously described XylE colorimetric assay that employs a reporter construct in which the hrtAB promoter is fused to a xylE reporter gene. […]

[2] = test system: S. aureus; test: Toxicity of analogs to bacteria in the XylE cultures; type: cell-based, Staphylococcus aureus; conditions: target dose of 30 μM
Method: as §1
The most consistent activity with non-furan-containing compounds was found with thiophene replacements.

[3] = test system: S. aureus USA300 luxBADCE; test: In vivo murine superficial skin (ear) infection model with PDT, bioluminescence imaging; design: species or system BALB/cJ mice; conditions: for Bacterial growth / luminescence in infected mouse ear compared to untreated animals: '8882 plus conjugated antibodies (i.p. and topical) plus 690 nm and 395 nm light, two-day regimen
Method: All mice were maintained in compliance with Vanderbilt's Institutional Animal Care and Use Committee regulations (protocol M1800026). To create a superficial skin wound a similar model of infection was used, as previously described (44), with modifications to relocate the area of infection to the inner epithelial layer of each ear. Eight- to 10-week-old female BALB/cJ mice were used for the S. aureus infections. Twenty-four hours prior to infection the mice were injected intraperitoneally with 20 μg/mL of both STAU-149 (anti-IsdA) and STAU-281 (anti-IsdB) in PBS. Overnight cultures of S. aureus USA300 with a chromosomally-integrated luxBADCE cassette (45) were subcultured 1:50 into TSB containing 1 mM 2,2-dipyridyl. Cultures were grown for 3.5 h to reach exponential phase of growth. Cell pellets were washed twice with ice-cold PBS with the original culture volume, centrifuged, and resuspended in 250 μL of ice-cold PBS. Approximately 5×10^7 log-phase CFUs were inoculated in 5 μL of PBS directly onto the surface of the wound present on each ear, and each mouse was again injected intraperitoneally with antibodies. Mice were placed into new sterile cages in groups of three in accordance with their experimental condition. Four hours post-infection, the mice were visualized using the IVIS spectrum (Perkin Elmer) in vivo bioluminescence imaging system, with data being collected with a 5-minute exposure time. Each mouse was then transferred to a nose cone under continuous isoflurane anesthesia and, 30 minutes prior to light exposure, the ears were exposed to 10 ∥L of the 450 ∥M '8882 and 20 μg/mL mAb cocktail in PBS containing 10% DMSO. Control mice were left untreated. The right ventrodorsal ear of each mouse was exposed to the 395-nm LED for 20.6-23.1 minutes delivering a total energy dose of 50 J/cm^2. […]
The left ventrodorsal ear of each mouse was not exposed to light during treatment. […] Luminescence was quantified for individual ears using ImageJ (FIJI) (46-48). […] Post-treatment images were again collected at 5-minute exposure times using the IVIS system and analyzed using ImageJ (FIJI). […]

[4] = test system: S. aureus strain Newman wild-type (iron-starved); test: In vitro antimicrobial photodynamic therapy light killing assay; type: cell-based, Staphylococcus aureus; conditions: for Growth inhibition / reduction of CFUs/mL by small molecule plus IR700DX-conjugated anti-IsdA and anti-IsdB mAb mixture: combination with mAb mixture, 63 J/cm^2 690 nm and 50 J/cm^2 395 nm light (FIG. 3A)
Method: Iron-chelated bacterial cultures of the indicated strains were prepared. Antibodies of interest were added to 5 mL of iron-chelated TSB at a concentration of 2.5 ug/mL for subculture. These conditions were then separated into four-1 mL aliquots, which was comprised of replicates for both the experimental and control strains. The iron-depleted bacterial strains Newman wildtype and Newman ΔisdABΔspa (40) were then normalized to an OD600 of 1.0 and back diluted 1:100 into each condition from the overnight cultures. These subcultures were then incubated at 37° C. and 180 rpm for 30 minutes, and the bacteria were pelleted via centrifugation for 5 minutes at 16,400 g and 4° C. The pellet was washed twice in 1 mL of cold PBS before being finally resuspended in 1 mL of cold PBS.
During the subculture incubation, a measurement was taken of the power of each light to calculate the time needed to achieve a light dose of 63 J/cm^2 for the 690 nm NIR light (M680L4; Thorlabs) and 50 J/cm^2 for the 395 nm blue-LED (M395L4; Thorlabs) mounted 5 cm above the measurement probe. This measurement was taken using a photodiode and power meter (919P-003-10, 843-R; Newport) with a cutout 3×3 portion of a black 384-well microtiter plate positioned centrally over the measurement probe. The outer wells were covered with aluminum foil to ensure that the measurement taken by the probe was strictly limited to the light that entered the 0.1225 cm^2 area of the well. This approach allowed for the irradiance of the light to be calculated according to (readout (mW)/0.1225 cm^2). This value was then divided into the total light dose for each light and divided by 60 to determine the light dose in minutes. The outputs of the 690 nm and 395 nm LEDs were spatially combined using a long-pass dichroic filter (FF470-Dio; Semrock Inc.) for all experimental conditions where light was present.
The spatial intensity profile of the light output is approximately Gaussian in shape in both directions, so 25 μL of each sample was aliquoted into a 3×3 square on a black 384-well microtiter plate with the center well remaining empty, since it would receive a stronger dose than the surrounding wells. The samples were organized such that the conditions alternated wild-type and knockout in a clockwise fashion, beginning with the lower left corner well. In addition, the center well was centered under the light to equate the radial diminishment of light dose amongst the samples.
To ensure the compounds' efficacy in the full therapeutic regimen and reduce potential unknown variables, each of the compounds was tested with 395 nm or 690 nm wavelengths and with Newman WT or Newman ΔisdAB Δspa. […]

[5] = Staphylococcus aureus, NEWMAN, read-out: logEC50 (converted)

Compound	XylE activity in comparison to '8882 at 10 μM [1]	logEC50 ([1]; XylE protocol with a concentration gradient, Newman phrt.xylE)	EC50 ([1]; XylE protocol with a concentration gradient, Newman phrt.xylE, read-out: EC50) [µM]	Specifc Activity (nMol/min*mg), data collected at 10 uM ([1]; 6 h subculture)	Toxicity to bacteria (S. aureus) [2]	Bacterial growth / luminescence in infected mouse ear compared to untreated animals [3]	Bacterial growth / luminescence in infected mouse ear compared to untreated animals ([3]; listed as VU00038882)	Bacterial burden in infected mouse ear, antibodies plus '8882 without light ([3]; no light exposure)	Specifc Activity @ 30 μM ([1]; 30 μM compound, 6 h subculture, XylE activity normalized to protein) [nmol/min/mg]	EC50 ([1]; Staphylococcus aureus, NEWMAN) [µM]	EC50 [1, 5] [µM]	Decrease of S. aureus viability compared with untreated cells, combined treatment ([4]; '8882 plus IR700DX-conjugated IsdA and IsdB antibodies plus 690 nm and 395 nm light)	Efficacy against S. aureus in PDT, small molecule alone ([4]; alone, with light)	Growth inhibition / reduction of CFUs/mL by small molecule plus IR700DX-conjugated anti-IsdA and anti-IsdB mAb mixture [4]	Growth inhibition / reduction of CFUs/mL by small molecule plus IR700DX-conjugated anti-IsdA and anti-IsdB mAb mixture ([4]; listed as VU0038882)
2-(5-(5-(Hydroxymethyl)thiophen-2-yl)-1H-pyrazol-3-yl)naphthalen-1-ol [′9952]	highest activity at 10 μM observed to date	−5.182 ± 0.065	6.58	18.10 ± 1.80^a nMol/min*mg	overtly toxic to bacteria; also recorded: exhibiting toxicity to S. aureus										
Oc1c(-c2cc(-c3ccco3)[nH]n2)ccc2ccccc12 [′8882, 2-(5-(Furan-2-yl)-1H-pyrazol-3-yl)naphthalen-1-ol]						significantly less bacterial growth	significant reduction in bacterial luminescence	a reduction in bacterial burden but did not reach the same extent as the combinatorial treatment	30.04 ± 10.24	10.5	10.5	10,000 fold	efficacious against S. aureus	significant growth inhibition of S. aureus	greater reduction of CFUs/mL in vitro than either condition alone
Oc1c(-c2cc(-c3ccoc3)[nH]n2)ccc2ccccc12 [′9133, 2-(5-(Furan-3-yl)-1H-pyrazol-3-yl)naphthalen-1-ol]	outperformed '8882			8.346 ± 1.304^a nMol/min*mg	overtly toxic to bacteria; also recorded: exhibiting toxicity to S. aureus					8.17	8.17				
